Measurements reported in publication PMC6627698, “Redesigning Arenicin-1, an Antimicrobial Peptide from the Marine Polychaeta Arenicola marina, by Strand Rearrangement or Branching, Substitution of Specific Residues, and Backbone Linearization or Cyclization” (Marine Drugs, 2019).
Residues, ends and D or L forms follow the SMILES beside them.

Key:
E. coli ATCC 25922 = format: cell-based, Escherichia coli; conditions: ATCC 25922, 18 h
Source text: (§1) E. coli ML35p, Listeria monocytogenes EGD, methicillin-resistant Staphylococcus aureus (MRSA) ATCC 33591 were kindly provided by Prof. Robert Lehrer (University of California, Los Angeles, CA, USA); E. coli ATCC 25922, E. coli M15, Pseudomonas aeruginosa ATCC 27853, S. aureus ATCC 25923 were provided by Dr. Elena Ermolenko (Institute of Experimental Medicine, St-Petersburg, Russia); drug-resistant clinical isolates were provided by Prof. Gennadiy Afinogenov (Saint Petersburg State University, Russia); S. aureus 710A has been described previously. The following clinical isolates of bacteria were used: P.s aeruginosa resistant to aztreonam, ceftazidime, cefotaxime (obtained from the urine of a patient with cystitis), Acinetobacter baumannii resistant to meropenem (from an infected wound); Staphylococcus intermedius (from an infected wound caused by a dog bite) resistant to ciprofloxacin, cefuroxime, clindamycin, erythromycin, rifampin, gentamicin, benzylpenicillin, oxacillin.
(§2) This assay was applied to determine the MIC, according to the guidelines of the Clinical and Laboratory Standards Institute, using Mueller Hinton (MH) Broth. We prepared 2x stocks of peptides and serially diluted them in sterile PBS instead of Mueller Hinton Broth, so that the treatment of the bacteria with the peptides was carried out in a medium containing 50% of MH and 50% of PBS, as described. The overnight cultures of each strain were transferred to fresh MH media and further incubated to obtain a mid-logarithmic-growth-phase culture of bacteria. The absorbance of each bacterial suspension was measured at 620 nm, and bacteria were then diluted to approximately 2 × 10^5 CFU/mL. Then, 50 µL of the suspensions were mixed with 50 µL of the peptide dilutions in the wells of a microtiter plate (pre-treated for 1 h at 37 °C with 0.2% bovine serum albumin (BSA) in water, sterilized by filtration, to diminish the non-specific binding of the peptides to the plastic surfaces).

E. coli M15 = format: cell-based, Escherichia coli; conditions: M15, 18 h
Source text: as §1, §2

[1] = test system: Staphylococcus intermidius; format: cell-based, Staphylococcus intermedius; conditions: 18 h
Source text: as §1, §2

[2] = test system: E. coli ML35p outer membrane; assay: Outer membrane permeabilization assay (nitrocefin hydrolysis); format: cell-based, Escherichia coli; conditions: peptide at 2 × MIC, 10 mM sodium phosphate buffer, 100 mM NaCl, pH 7.4, 37 °C, 486 nm
Experimental: Figure 5 Permeabilizing effect of arenicin-1 variants on E. coli ML35p outer and cytoplasmic membranes.
The E. coli ML35p outer membrane permeability was assessed by monitoring hydrolysis of the chromogenic β-lactamase substrate nitrocefin (3-(2,4-dinitrostyryl)-(6R,7R)-7-(2-thienyl acetamido)ceph-3-em-4-carboxylic acid) (Calbiochem-Novabiochem, San-Diego, CA, USA) by detection of the hydrolysis product at 486 nm. Inner membrane permeability was monitored by measuring the hydrolysis of o-nitrophenyl-β-D-galactoside (ONPG, Sigma, La Jolla, CA, USA) at 420 nm. The E. coli ML35p strain expresses a plasmid-encoded periplasmic β-lactamase; it constitutively expresses cytoplasmic β-galactosidase and lacks lactose permease. E. coli ML35p was maintained on trypticase soy agar plates containing […] of ampicillin per mL. The bacteria used for antimicrobial testing or membrane permeability assays were picked from a single colony, incubated in 50 mL of sterile Trypticase soy broth for 16 h at 37 °C, washed three times with 10 mM sodium phosphate buffer (pH 7.4), adjusted to an optical density at 620 nm of 1 (2.5 × 10^8 CFU/mL), and kept on ice until use. The assays were performed in 96-well microtiter plates that were monitored every minute with a SpectraMax 250 Microplate Spectrophotometer (Molecular Devices, Sunnyvale, CA, USA) using the SOFTmax PRO software supplied by the manufacturer. […]

[3] = test system: human erythroleukemia K-562 cells; format: cell-based; conditions: 24 h
Experimental: The standard MTT ((3-(4,5-Dimethylthiazol-2-yl)-2,5-diphenyltetrazolium bromide) test was used for the examination of the cytotoxic activity of AMPs towards human erithroleukemia cells K-562. The cells were purchased from Biolot (Saint Petersburg, Russia) and were grown in RPMI 1640 medium (Biolot, Saint Petersburg, Russia) supplemented with glutamine and 10% FCS. Before the experiment, the culturing medium was replaced with serum-free RPMI 1640. Serial dilutions of the peptides in RPMI were plated in sterile 96-well microplates, and the target cells were dispensed to the microplates (10^5 cells/well in RPMI 1640). The plates were incubated for 24 h at 37 °C under 5% CO2. Cell-free media and cells incubated without peptides served as controls. Four hours before the incubation ended, MTT in PBS (5 mg/mL) was added to each well. After the incubation was stopped by adding isopropanol/ 0.04 M HCl, the optical density was measured at 540 nm, subtracting the background absorbance at 690 nm. Toxicity was determined by nonlinear regression analysis of the corresponding dose–response curves using the Sigma Plot 11 program to calculate the IC50 values (the concentration of the test substance that reduced the OD540 capacity by 50%).

Escherichia coli ML35p = format: cell-based; conditions: broth microdilution, 50% Mueller Hinton broth / 50% PBS, 18 h at 37 °C, median of 3–5 experiments in triplicates
Source text: as §1, §2

[4] = test system: Listeria monocytogenes EGD; format: cell-based; conditions: 18 h
Source text: as §1, §2

[5] = test system: Pseudomonas aeruginosa ATCC 27853; format: cell-based; conditions: ATCC 27853, 18 h
Source text: as §1, §2

[6] = test system: Staphylococcus aureus 710A; format: cell-based; conditions: 18 h
Source text: as §1, §2

S. aureus c.i. = format: cell-based, Staphylococcus aureus; conditions: 18 h
Source text: as §1, §2

MRSA ATCC 33591 = format: cell-based, Staphylococcus aureus; conditions: ATCC 33591, 18 h
Source text: as §1, §2

S. aureus ATCC 25923 = format: cell-based, Staphylococcus aureus; conditions: ATCC 25923, 18 h
Source text: as §1, §2

[7] = test system: Acinetobacter baumanii c.i.; format: cell-based, Acinetobacter baumannii; conditions: 18 h
Source text: as §1, §2

P. aeruginosa c.i. = format: cell-based, Pseudomonas aeruginosa; conditions: 18 h
Source text: as §1, §2

[8] = test system: set of Gram-negative and Gram-positive bacteria, including drug-resistant clinical isolates; format: cell-based; conditions: 12 strains; median MICs used; MIC > 16 µM taken as 32 µM
Experimental: To obtain a global assessment of the effect on antimicrobial activity, the geometric mean of the MIC (G-MIC) was calculated, and from this, the overall improvement or impoverishment with respect to arenicin-1. In general, inverting the symmetry or decreasing the charge had detrimental effects.
The overall activity against a set of tested bacterial strains was determined by way of the commonly used geometric mean of measured MIC values. […] At the same time, the geometric mean can still discriminate antimicrobial agents showing minor variations in activity; in other words, it has a better “resolution” than the median MIC (MIC50). Some mathematical basics for choosing the geometric mean for antimicrobial activity comparison are further discussed in the Supplementary Chapter S3.

Structure (SMILES)	Minimal Inhibitory Concentrations (MIC) (E. coli ATCC 25922)	Minimal Inhibitory Concentrations (MIC) (E. coli M15)	Minimal Inhibitory Concentrations (MIC) [1]	Capacity to permeabilize the outer membrane with respect to arenicin-1 [2]	IC50 [3]	Minimal Inhibitory Concentrations (MIC) (Escherichia coli ML35p)	Minimal Inhibitory Concentrations (MIC) [4]	Minimal Inhibitory Concentrations (MIC) [5]	Minimal Inhibitory Concentrations (MIC) [6]	Minimal Inhibitory Concentrations (MIC) (S. aureus c.i.)	Minimal Inhibitory Concentrations (MIC) (MRSA ATCC 33591)	Minimal Inhibitory Concentrations (MIC) (S. aureus ATCC 25923)	Minimal Inhibitory Concentrations (MIC) [7]	Minimal Inhibitory Concentrations (MIC) (P. aeruginosa c.i.)	G-MIC (geometric mean of all determined MICs) [8]
CC(C)C[C@@H]1NC(=O)[C@H](C(C)C)NC(=O)CNC(=O)[C@H](CCCCN)NC(=O)[C@H](C(C)C)NC(=O)[C@H](CCCCN)NC(=O)[C@H](C(C)C)NC(=O)[C@H](Cc2ccc(O)cc2)NC(=O)[C@H](C)NC(=O)[C@H](Cc2ccc(O)cc2)NC(=O)[C@H](C(C)C)NC(=O)[C@@H](NC(=O)[C@H](Cc2c[nH]c3ccccc23)NC(=O)[C@@H](N)CCCCN)CSSC[C@@H](C(=O)N[C@@H](Cc2c[nH]c3ccccc23)C(=O)O)NC(=O)[C@H](CCCCN)NC(=O)[C@H](CCCCN)NC(=O)[C@H](Cc2ccc(O)cc2)NC(=O)[C@H](CCCCN)NC(=O)[C@H](C(C)C)NC1=O [AR-K] (HELM PEPTIDE1{K.W.C.V.Y.A.Y.V.K.V.K.G.V.L.V.K.Y.K.K.C.W}$PEPTIDE1,PEPTIDE1,3:R3-20:R3$$$V2.0; N-terminus assumed)	2 µM	1 µM	4 µM	improved capacity to permeabilize the outer membrane	7.7 µM	1 µM	2 µM	1 to 2 µM	2 µM	4 µM	2 µM	2 µM	1 µM	2 to 4 µM	1.9 µM
CC(C)C[C@@H]1NC(=O)[C@H](C(C)C)NC(=O)CNC(=O)[C@H](CCCNC(=N)N)NC(=O)[C@H](C(C)C)NC(=O)[C@H](CCCNC(=N)N)NC(=O)[C@H](C(C)C)NC(=O)[C@H](Cc2ccc(O)cc2)NC(=O)[C@H](C)NC(=O)[C@H](Cc2ccc(O)cc2)NC(=O)[C@H](C(C)C)NC(=O)[C@@H]2CSSC[C@H](NC(=O)[C@H](CCCNC(=N)N)NC(=O)[C@H](CCCNC(=N)N)NC(=O)[C@H](Cc3ccc(O)cc3)NC(=O)[C@H](CCCNC(=N)N)NC(=O)[C@H](C(C)C)NC1=O)C(=O)N[C@@H](Cc1c[nH]c3ccccc13)C(=O)N[C@@H](CCCNC(=N)N)C(=O)N[C@@H](Cc1c[nH]c3ccccc13)C(=O)N2 [ARcycl] (HELM PEPTIDE1{R.W.C.V.Y.A.Y.V.R.V.R.G.V.L.V.R.Y.R.R.C.W}$PEPTIDE1,PEPTIDE1,3:R3-20:R3|PEPTIDE1,PEPTIDE1,1:R1-21:R2$$$V2.0)	2 µM	2 µM	4 µM	improved capacity to permeabilize the outer membrane	16.2 µM		2 µM	1 µM	2 µM	4 µM	4 µM	2 µM	4 µM	2 µM	
